Results from patent publication US20080234284A1, “Pyrazolo[1,5-a]Pyrimidin-7-Yl Amine Derivatives as Protein Kinase Inhibitors” (priority 2005, published 2008).

What was measured:
human EphB4 receptor = target: T1, human EphB4 receptor (Homo sapiens, UniProt P54760); experiment: EphB4 kinase assay on recombinant Ephrin B4 receptor domains (33P filter assay); assay type: biochemical
T1 construct: made in house; host or cells: Sf9 or Sf21 insect cells (baculovirus)
T1 sequence (P54760 566-987): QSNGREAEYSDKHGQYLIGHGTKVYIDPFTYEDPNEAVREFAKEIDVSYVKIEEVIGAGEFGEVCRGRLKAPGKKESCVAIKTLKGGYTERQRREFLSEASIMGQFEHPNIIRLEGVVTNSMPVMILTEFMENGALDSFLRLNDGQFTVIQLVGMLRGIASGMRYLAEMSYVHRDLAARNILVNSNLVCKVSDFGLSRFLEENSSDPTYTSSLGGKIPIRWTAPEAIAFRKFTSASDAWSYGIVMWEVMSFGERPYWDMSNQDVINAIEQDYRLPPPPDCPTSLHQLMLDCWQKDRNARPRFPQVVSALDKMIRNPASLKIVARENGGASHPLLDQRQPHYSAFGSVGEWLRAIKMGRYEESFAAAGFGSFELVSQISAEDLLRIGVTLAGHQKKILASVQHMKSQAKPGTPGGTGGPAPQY
Excerpt: Recombinant baculovirus are generated that express the amino acid region 566-987 of the human EphB4 receptor (SwissProt Database, Accession No. P54760). GST sequence is cloned into pFastBac1® vector (Invitrogen Life Technologies, Basel, Switzerland) and PCR amplified. cDNAs encoding EphB4-receptor domains, respectively are cloned in frame 3′prime to the GST sequence into this modified FastBac1 vector to generate pBac-to-Bac™ donor vectors. Single colonies arising from the transformation are inoculated to give overnight cultures for small scale plasmid preparation. […] By automated sequencing the inserts and approximately 50 bp of the flanking vector sequences are confirmed on both strands.
Production of viruses: Viruses for each of the kinases are made according to the protocol supplied by GIBCO if not stated otherwise. In brief, transfer vectors containing the kinase domains are transfected into the DH10Bac cell line (GIBCO) and plated on selective agar plates. […]
Purification of GST-tagged kinases: The centrifuged cell lysate is loaded onto a 2 mL glutathione-sepharose column (Pharmacia) and washed three times with 10 mL of 25 mM Tris-HCl, pH 7.5, 2 mM EDTA, 1 mM DTT, 200 mM NaCl. […] Membranes are counted after drying at ambient temperature, mounting in Packard TopCount96-well frame, and addition of 10 μL/well of Microscint™ (Packard). […]

human EphB4 = target: T2, human EphB4 (Homo sapiens, UniProt P54760); experiment: EphB4 receptor autophosphorylation sandwich ELISA in transfected A375 human melanoma cells; assay type: cell-based; details: EphB4 receptor auto-phosphorylation in vitro on cells
T2 construct: expressed in transfected cells; host or cells: A375 human melanoma cells (ATCC CRL-1619)
T2 sequence (P54760 16-987): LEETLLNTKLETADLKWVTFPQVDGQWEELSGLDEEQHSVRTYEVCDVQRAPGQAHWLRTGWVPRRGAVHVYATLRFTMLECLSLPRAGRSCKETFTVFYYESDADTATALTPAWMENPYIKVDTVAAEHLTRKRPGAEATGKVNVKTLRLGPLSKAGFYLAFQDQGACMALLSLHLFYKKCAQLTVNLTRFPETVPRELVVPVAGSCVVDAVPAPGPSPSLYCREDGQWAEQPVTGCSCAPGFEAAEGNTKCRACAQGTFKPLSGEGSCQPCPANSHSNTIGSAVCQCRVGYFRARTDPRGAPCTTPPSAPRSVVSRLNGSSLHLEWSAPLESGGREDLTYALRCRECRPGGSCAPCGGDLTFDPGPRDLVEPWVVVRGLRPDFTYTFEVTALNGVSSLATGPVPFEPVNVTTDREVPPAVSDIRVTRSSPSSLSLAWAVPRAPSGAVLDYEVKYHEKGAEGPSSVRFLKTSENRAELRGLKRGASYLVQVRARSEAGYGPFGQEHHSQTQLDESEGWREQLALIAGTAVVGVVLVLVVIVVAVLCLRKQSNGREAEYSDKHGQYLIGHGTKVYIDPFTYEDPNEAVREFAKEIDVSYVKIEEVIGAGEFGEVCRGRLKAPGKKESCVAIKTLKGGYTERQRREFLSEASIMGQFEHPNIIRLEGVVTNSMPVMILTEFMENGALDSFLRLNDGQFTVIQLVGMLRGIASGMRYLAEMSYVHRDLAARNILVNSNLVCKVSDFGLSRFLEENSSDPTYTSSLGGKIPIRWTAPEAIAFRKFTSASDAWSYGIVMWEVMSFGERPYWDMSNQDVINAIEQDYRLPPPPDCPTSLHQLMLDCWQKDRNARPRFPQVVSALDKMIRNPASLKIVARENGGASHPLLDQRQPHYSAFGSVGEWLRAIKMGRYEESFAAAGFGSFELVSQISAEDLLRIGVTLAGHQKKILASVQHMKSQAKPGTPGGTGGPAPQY
Experimental: Alternatively, EphB4 receptor autophosphorylation can be measured as follows: The inhibition of EphB4 receptor autophosphorylation can be confirmed with an in vitro experiment in cells such as transfected A375 human melanoma cells (ATCC Number: CRL-1619), which permanently express human EphB4 (SwissProt AccNo P54760), are seeded in complete culture medium (with 10% fetal calf serum ═FCS) in 6-well cell-culture plates and incubated at 37° C. under 5% CO2 until they show about 90% confluency. The compounds to be tested are then diluted in culture medium (without FCS, with 0.1% bovine serum albumin) and added to the cells. (Controls comprise medium without test compounds). Ligand induced autophosphorylation is induced by the addition of 1 microg/ml soluble ephrinB2-Fc (s-ephrinB2-Fc: R&D Biosystems, CatNr 496-EB) and 0.1 microM ortho-vanadate. After a further 20 minutes incubation at 37° C., the cells are washed twice with ice-cold PBS (phosphate-buffered saline) and immediately lysed in 200 μl lysis buffer per well. The lysates are then centrifuged to remove the cell nuclei, and the protein concentrations of the supernatants are determined using a commercial protein assay (PIERCE). The lysates can then either be immediately used or, if necessary, stored at −20° C. […]

c-Abl kinase = target: T3, c-Abl kinase (Homo sapiens, UniProt P00519); experiment: c-Abl protein-tyrosine kinase filter binding assay; assay type: biochemical
T3 construct: The His-tagged kinase domain of c-Abl is cloned and expressed in the baculovirus/Sf9 system; His; made in house; host or cells: Sf9 insect cells (baculovirus)
T3 sequence (P00519 242-493 limits assumed): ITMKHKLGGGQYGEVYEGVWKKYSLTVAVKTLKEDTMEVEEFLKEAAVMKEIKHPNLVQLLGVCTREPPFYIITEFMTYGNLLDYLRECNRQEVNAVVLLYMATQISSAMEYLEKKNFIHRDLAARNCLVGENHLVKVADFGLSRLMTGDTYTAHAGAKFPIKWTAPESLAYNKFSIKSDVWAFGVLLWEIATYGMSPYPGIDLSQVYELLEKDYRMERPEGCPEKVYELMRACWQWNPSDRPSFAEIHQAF
Experimental: The His-tagged kinase domain of c-Abl is cloned and expressed in the baculovirus/Sf9 system as described by Bhat et al. in J. Biol. Chem. 1997; 272:16170-16175. A protein of 37 kD (c-Abl kinase) is purified by a two-step procedure over a Cobalt metal chelate column followed by an anion exchange column with a yield of 1-2 mg/L of Sf9 cells (Bhat et al., reference cited). The purity of the c-Abl kinase is >90% as judged by SDS-PAGE after Coomassie blue stai-ning. The assay contains (total volume of 30 μL): c-Abl kinase (50 ng), 20 mM Tris.HCl, pH 7.5, 10 mM MgCl2, 10 μM Na3VO4, 1 mM DTT and 0.06 μCi/assay [γ33 P]-ATP (5 μM ATP) using 30 μg/mL poly-Ala, Glu, Lys, Tyr-6:2:5:1 (Poly-AEKY, Sigma P1152) in the presence of 1% DMSO. Reactions are terminated by adding 10 μL of 250 mM EDTA and 30 μL of the reaction mixture is transferred onto Immobilon-PVDF membrane (Millipore, Bedford, Mass., USA) previously soaked for 5 min with methanol, rinsed with water, then soaked for 5 min with 0.5% H3PO4 and mounted on vacuum manifold with disconnected vacuum source. After spotting all samples, vacuum is connected and each well rinsed with 200 μL 0.5% H3PO4. […] Membranes are counted after drying at ambient temperature, mounting in Packard TopCount 96-well frame, and addition of 10 μL/well of Microscint™ (Packard).

COc1ccc(-c2cnn3c(N)c(-c4cccc(Cl)c4)c(CN4CCNCC4)nc23)cc1OC [Example 1, 6-(3-Chloro-phenyl)-3-(3,4-dimethoxy-phenyl)-5-piperazin-1-ylmethyl-pyrazolo[1,5-a]pyrimidin-7-ylamine]
1 to 1000 nM: EphB4 IC50 (human EphB4 receptor) | EphB4 ELISA - IC50 (human EphB4) | c-Abl IC50 (c-Abl kinase)

COc1ccc(-c2cnn3c(N)c(-c4ccc(F)cc4)c(CN4CCNCC4)nc23)cc1OC [Example 2, 3-(3,4-Dimethoxy-phenyl)-6-(4-fluoro-phenyl)-5-piperazin-1-ylmethyl-pyrazolo[1,5-a]pyrimidin-7-ylamine]
1 to 1000 nM: EphB4 IC50 (human EphB4 receptor) | EphB4 ELISA - IC50 (human EphB4) | c-Abl IC50 (c-Abl kinase)
